In test [1] the test system is Syrian golden hamster. Put plainly: Antidiabetic activity against high fructose high fat diet fed syrian golden hamster assessed as change in serum insulin level at 30 mg/kg, po for 7 days by ELISA relative to untreated control. Type of test: functional, Mesocricetus auratus. (In an ELISA, binding on a coated surface is turned into a signal by an enzyme label.)
Test [2] deals with Syrian golden hamster. The experiment in a line: Antidyslipidemic activity against high fructose high fat diet fed syrian golden hamster assessed as reduction in serum cholesterol at 30 mg/kg, po for 7 days relative to untreated control. On the set-up: scale not given: the % may be the effect or the level left. Type of test: functional, Mesocricetus auratus.
Test [3] concerns Syrian golden hamster. Put plainly: Antidyslipidemic activity against high fructose high fat diet fed syrian golden hamster assessed as change in serum HDL-cholesterol at 30 mg/kg, po for 7 days relative to untreated control. In kind it is functional, Mesocricetus auratus.
In test [4] the test system is Syrian golden hamster. The experiment in a line: Antidyslipidemic activity against high fructose high fat diet fed syrian golden hamster assessed as reduction in serum triglyceride at 30 mg/kg, po for 7 days relative to untreated control. Type of test: functional, Mesocricetus auratus. On the set-up: scale not given: the % may be the effect or the level left.
For test [5], the system named is Syrian golden hamster. Put plainly: Antidyslipidemic activity against high fructose high fat diet fed syrian golden hamster assessed as reduction in serum LDL-cholesterol at 30 mg/kg, po for 7 days relative to untreated control. Type of test: functional, Mesocricetus auratus. Also on record: scale not given: the % may be the effect or the level left.
Test [6] has as its system Syrian golden hamster. The experiment in a line: Antidiabetic activity against high fructose high fat diet fed syrian golden hamster assessed as change in fasting blood glucose level at 30 mg/kg, po for 7 days relative to untreated control. Type of test: functional, Mesocricetus auratus.
Test [7] relates to Syrian golden hamster. The experiment in a line: Antidyslipidemic activity against high fructose high fat diet fed syrian golden hamster assessed as reduction in body weight at 30 mg/kg, po for 7 days relative to untreated control. In kind it is functional, Mesocricetus auratus. On the set-up: scale not given: the % may be the effect or the level left.
Test [8] concerns Syrian golden hamster. Put plainly: Antidyslipidemic activity against high fructose high fat diet fed syrian golden hamster assessed as reduction in serum triglyceride at 10 mg/kg, po for 7 days relative to untreated control. In kind it is functional, Mesocricetus auratus. On the set-up: scale not given: the % may be the effect or the level left.
For test [9], the system named is Syrian golden hamster. Put plainly: Antidyslipidemic activity against high fructose high fat diet fed po dosed syrian golden hamster assessed as reduction in serum LDL-cholesterol administered for 7 days relative to untreated control. The note with it: Mesocricetus auratus. Type of test: functional, organism-based.
The test system of test [10] is Syrian golden hamster. Put plainly: Antidyslipidemic activity against high fructose high fat diet fed po dosed syrian golden hamster assessed as reduction in glycerol level administered for 7 days relative to untreated control. Type of test: functional, organism-based. The note with it: Mesocricetus auratus.
Test [11] deals with Syrian golden hamster. The experiment in a line: Antidyslipidemic activity against high fructose high fat diet fed syrian golden hamster assessed as increase in lipoprotein lipase activity at 10 mg/kg, po for 7 days relative to untreated control. Type of test: functional, Mesocricetus auratus.
In test [12] the test system is Syrian golden hamster. Put plainly: Antidyslipidemic activity against high fructose high fat diet fed syrian golden hamster assessed as change in serum HDL-cholesterol at 10 mg/kg, po for 7 days relative to untreated control. Type of test: functional, Mesocricetus auratus.
Test [13] relates to Syrian golden hamster. The experiment in a line: Antidyslipidemic activity against high fructose high fat diet fed syrian golden hamster assessed as reduction in NEFA level at 10 mg/kg, po for 7 days relative to untreated control. In kind it is functional, Mesocricetus auratus. On the set-up: scale not given: the % may be the effect or the level left.
Test [14] concerns Syrian golden hamster. Put plainly: Antidyslipidemic activity against high fructose high fat diet fed po dosed syrian golden hamster assessed as reduction in serum cholesterol administered for 7 days relative to untreated control. Type of test: functional, organism-based. As to conditions: Mesocricetus auratus.
Test [15] deals with Syrian golden hamster. Put plainly: Antidyslipidemic activity against high fructose high fat diet fed po dosed syrian golden hamster assessed as increase in serum HDL-cholesterol administered for 7 days relative to untreated control. The note with it: Mesocricetus auratus. In kind it is functional, organism-based.
The subject of test [16] is Syrian golden hamster. The experiment in a line: Antidyslipidemic activity against high fructose high fat diet fed syrian golden hamster assessed as reduction in glycerol level at 30 mg/kg, po for 7 days relative to untreated control. In kind it is functional, Mesocricetus auratus. On the set-up: scale not given: the % may be the effect or the level left.
The subject of test [17] is Syrian golden hamster. The experiment in a line: Antidyslipidemic activity against high fructose high fat diet fed syrian golden hamster assessed as increase in lipoprotein lipase activity at 30 mg/kg, po for 7 days relative to untreated control. In kind it is functional, Mesocricetus auratus.
Test [18] concerns Syrian golden hamster. Put plainly: Antidyslipidemic activity against high fructose high fat diet fed po dosed syrian golden hamster assessed as reduction in NEFA level administered for 7 days relative to untreated control. The note with it: Mesocricetus auratus. Type of test: functional, organism-based.
For test [19], the system named is Syrian golden hamster. The experiment in a line: Antidyslipidemic activity against high fructose high fat diet fed syrian golden hamster assessed as reduction in NEFA level at 30 mg/kg, po for 7 days relative to untreated control. Type of test: functional, Mesocricetus auratus. On the set-up: scale not given: the % may be the effect or the level left.
In test [20] the test system is Syrian golden hamster. Put plainly: Antidyslipidemic activity against high fructose high fat diet fed po dosed syrian golden hamster assessed as increase in lipoprotein lipase activity administered for 7 days relative to untreated control. Type of test: functional, organism-based. The note with it: Mesocricetus auratus.
For test [21], the system named is Syrian golden hamster. The experiment in a line: Antidyslipidemic activity against high fructose high fat diet fed syrian golden hamster assessed as reduction in glycerol level at 10 mg/kg, po for 7 days relative to untreated control. In kind it is functional, Mesocricetus auratus. On the set-up: scale not given: the % may be the effect or the level left.
Test [22] concerns Syrian golden hamster. The experiment in a line: Antidyslipidemic activity against high fructose high fat diet fed syrian golden hamster assessed as reduction in serum cholesterol at 10 mg/kg, po for 7 days relative to untreated control. Type of test: functional, Mesocricetus auratus. On the set-up: scale not given: the % may be the effect or the level left.
In test [23] the test system is Syrian golden hamster. The experiment in a line: Antidyslipidemic activity against high fructose high fat diet fed po dosed syrian golden hamster assessed as reduction in serum triglyceride administered for 7 days relative to untreated control. Type of test: functional, organism-based. As to conditions: Mesocricetus auratus.
Test [24] has as its system Syrian golden hamster. The experiment in a line: Antidyslipidemic activity against high fructose high fat diet fed syrian golden hamster assessed as reduction in serum LDL-cholesterol at 10 mg/kg, po for 7 days relative to untreated control. Type of test: functional, Mesocricetus auratus. Also on record: scale not given: the % may be the effect or the level left.

This note sets out measurements from ChEMBL document CHEMBL1777781, “Synthesis and antidyslipidemic activity of chalcone fibrates” (2011).

For `CCOC(=O)C(C)(C)Oc1ccc(C(=O)/C=C/c2ccc(OC)cc2)cc1`, the Activity in test [1] is listed as -5.87%; in [2] it was 9.3%; in test [3], -9.9%; in [4], 31.2%; in [5] it was 27.4%; in test [6], -16.9%.
`CCOC(=O)C(C)(C)Oc1ccc(/C=C/C(=O)c2ccccc2)cc1`: the Activity came to 6.78% in [1]; 17.8% in test [2]; 10.8% in [3]; 25.1% in test [4]; 16.8% in test [5]; 8.8% in test [6].
As for `CCOC(=O)C(C)(C)Oc1ccc(C(=O)/C=C/c2ccc(C)cc2)cc1`, the Activity in test [1] is on record as -10.8%; in [2], 23.4%; in test [3], 2.52%; in test [4], 22.7%; in test [5], 19.8%; in test [6], -12.9%.
With `CCOC(=O)C(C)(C)Oc1ccc(C(=O)/C=C/c2ccc3c(c2)OCO3)cc1`, the Activity in test [7] was 6.25%; in test [1], -22.2%; in test [2], 26.8%; in test [8] it was 20%; in [9], “Dose-dependent effect”; in [10] it was “Dose-dependent effect”. The Activity in test [11] is 14.5%; in test [3] it was 9.8%; in [4] it was 41.6%; in [12], 3.78%; in test [13], 6.73%; in [14], “Dose-dependent effect”. Also, the Activity entry was “Dose-dependent effect” in [15]; 24.9% in [16]; 30.2% in test [17]; “Dose-dependent effect” in [18]; 20.5% in [19]; 41.7% in test [5]. Moreover, the Activity entry in test [20] was “Dose-dependent effect”; in test [6] it was -14.8%; in test [21] it was 14.9%; in test [22], 18.6%; in [23], “Dose-dependent effect”; in test [24], 25.2%.
Take `CCOC(=O)C(C)(C)Oc1cccc(/C=C/C(=O)c2ccccc2)c1`: the Activity was -5.89% in [1]; 11.5% in test [2]; 2.1% in [3]; 18.5% in test [4]; 15.3% in test [5]; -10.5% in test [6].
For `CCOC(=O)C(C)(C)Oc1ccc(C(=O)/C=C/c2ccccc2Cl)cc1`, the Activity in test [1] came to 2.39%; in test [2], 0.48%; in test [3] it was 15.6%; in test [4], 21.3%; in [5] it was 16.4%; in [6], 4.65%.
Regarding `CCOC(=O)C(C)(C)Oc1ccc(C(=O)/C=C/c2cc(Cl)cc(Cl)c2)cc1`, the Activity is listed as -12.1% in test [1]; 16.9% in test [2]; 10.1% in [3]; 17.4% in test [4]; 16.8% in test [5]; -8.4% in [6].
With `CCOC(=O)C(C)(C)Oc1ccc(C(=O)/C=C/c2ccc([N+](=O)[O-])cc2)cc1`, the Activity is 6.85% in test [7]; -24.3% in test [1]; 25% in [2]; 20% in [8]; “Dose-dependent effect” in test [9]; “Dose-dependent effect” in [10]. For the same molecule, the Activity in [11] was 10.8%; in [3] it was 5.88%; in test [4] it was 30.4%; in test [12], -3.36%; in test [13] it was 2.45%; in test [14], “Dose-dependent effect”. Further, the Activity result in [15] is “Dose-dependent effect”; in [16] it was 17.2%; in test [17], 21.7%; in [18], “Dose-dependent effect”; in test [19], 15.9%; in test [5], 28.5%. Besides, the Activity result in test [20] was “Dose-dependent effect”; in [6], -7.49%; in [21], 7.93%; in test [22] it was 15.6%; in test [23], “Dose-dependent effect”; in [24], 16.9%.
As for `CCOC(=O)C(C)(C)Oc1ccc(C(=O)/C=C/c2ccc(F)cc2)cc1`, the Activity in test [1] was -4.9%; in test [2], 16.8%; in test [3], 4.8%; in test [4] it was 22.2%; in test [5], 23.2%; in test [6], -18.4%.
Take `CCOC(=O)C(C)(C)Oc1ccc(C(=O)/C=C/c2ccc(Cl)cc2)cc1`: the Activity in [1] is -22.2%; in test [2] it was 23.7%; in test [3] it was -2.52%; in test [4], 22.7%; in test [5], 20.5%; in [6] it was 5.4%.
Take `CC(C)OC(=O)C(C)(C)Oc1ccc(C(=O)c2ccc(Cl)cc2)cc1` [FENOFIBRATE]: the Activity in test [1] is -11.5%; in test [3], 9.8%; in [4], 28.9%; in test [16], 22.4%; in [17], 21.1%; in test [5], 30.1%. Moreover, the Activity in test [6] is -5.4%.
